This note sets out measurements from US20240025912A1 (Merck Sharp & Dohme LLC, priority 2022, published 2024).

pEC50: −log10 of the molar value.

GST-RIPK1 (recombinant GST-RIPK1 kinase domain (residues 1-327)), sequence (Q13546 1-327): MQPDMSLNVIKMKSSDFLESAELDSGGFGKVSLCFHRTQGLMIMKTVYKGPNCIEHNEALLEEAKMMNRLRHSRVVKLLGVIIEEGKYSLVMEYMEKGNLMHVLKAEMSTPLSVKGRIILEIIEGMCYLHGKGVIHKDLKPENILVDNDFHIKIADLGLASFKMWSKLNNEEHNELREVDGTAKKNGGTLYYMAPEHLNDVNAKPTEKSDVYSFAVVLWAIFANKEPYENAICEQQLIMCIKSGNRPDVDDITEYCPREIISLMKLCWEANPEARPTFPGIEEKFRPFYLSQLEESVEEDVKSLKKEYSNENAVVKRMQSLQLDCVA

The assay addresses GST-RIPK1 (recombinant GST-RIPK1 kinase domain (residues 1-327)) (Homo sapiens (Human), UniProt Q13546). Description: RIPK1-ADP-Glo Enzymatic Assay. The conditions noted are these: 25 nM GST-RIPK1, 300 μM ATP, 3 μM dephosphorylated-MBP, 30 min pre-incubation, 150 min reaction. Format: biochemical. In short, it runs like this:
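GST-RIPK1 kinase domain (1-327, Sf21-expressed), 25 nM final, pre-incubated 30 min with compound (1% DMSO), then reacted 150 min with 300 μM ATP and 3 μM dephosphorylated MBP in HEPES pH 7.3/MgCl2 buffer. ADP measured by ADP-Glo luminescence; EC50 from 10-point 1:3 titrations (top 100000 nM), four-parameter fit.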
As for `O=c1n(C23CC(C2)C3)nc2n1[C@H](c1cc(F)cc(F)c1)CC2` [Compound 1-7, (5S)-2-(bicyclo[1.1.1]pentan-1-yl)-5-(3,5-difluorophenyl)-2,5,6,7-tetrahydro-3H-pyrrolo[2,1-c][1,2,4]triazol-3-one], the pEC50 is 7.01.

Regarding `O=c1n(C23CC(F)(C2)C3)nc2n1[C@H](c1cc(F)cc(F)c1)CC2F` (single isomer, unassigned) [Compound 6-2, (5S)-5-(3,5-difluorophenyl)-7-(S or R)-fluoro-2-(3-fluorobicyclo[1.1.1]pentan-1-yl)-2,5,6,7-tetrahydro-3H-pyrrolo[2,1-c][1,2,4]triazol-3-one], the pEC50 is 7.74.

Consider `O=c1n(C23CCC(C(F)F)(CC2)C3)nc2n1[C@H](c1cc(F)cc(F)c1)CC2` [Compound 1-27, (5S)-2-[4-(difluoromethyl)bicyclo[2.2.1]heptan-1-yl]-5-(3,5-difluorophenyl)-2,5,6,7-tetrahydro-3H-pyrrolo[2,1-c][1,2,4]triazol-3-one], for which the pEC50 is 6.27.

With `N#CC12CC(n3nc4n(c3=O)C(C3CCCCC3)CC4)(C1)C2` (single isomer, unassigned) [Compound 1-55, 3-(5-(S or R)-cyclohexyl-3-oxo-6,7-dihydro-3H-pyrrolo[2,1-c][1,2,4]triazol-2(5H)-yl)bicyclo[1.1.1]pentane-1-carbonitrile], the pEC50 is 6.99.

For `N#CC12CC(n3nc4n(c3=O)[C@H](c3ccccc3)CC4F)(C1)C2` (single isomer, unassigned) [Compound 6-7, 3-[(5S)-7-(S or R)-fluoro-3-oxo-5-phenyl-6,7-dihydro-3H-pyrrolo[2,1-c][1,2,4]triazol-2(5H)-yl]bicyclo[1.1.1]pentane-1-carbonitrile], the negative logarithm of the EC50 (pEC50) is 6.30.

In the case of `O=c1n(C23CC(F)(C2)C3)nc2n1[C@H](c1cncc(F)c1)CC2` [Compound 1-10, (5S)-2-(3-fluorobicyclo[1.1.1]pentan-1-yl)-5-(5-fluoropyridin-3-yl)-2,5,6,7-tetrahydro-3H-pyrrolo[2,1-c][1,2,4]triazol-3-one], the pEC50 is 6.57.

`N#CC12CC(n3nc4n(c3=O)[C@H](c3cncc(Cl)c3)CC4)(C1)C2` [Compound 1-22, (S)-3-(5-(5-chloropyridin-3-yl)-3-oxo-6,7-dihydro-3H-pyrrolo[2,1-c][1,2,4]triazol-2(5H)-yl)bicyclo[1.1.1]pentane-1-carbonitrile]: the pEC50 is 6.31.

Consider `C[C@H]1C[C@@H](c2cc(F)cc(F)c2)n2c1nn(C13CC(C#N)(C1)C3)c2=O` [Compound 1-70, 3-((5S,7S)-5-(3,5-difluorophenyl)-7-methyl-3-oxo-6,7-dihydro-3H-pyrrolo[2,1-c][1,2,4]triazol-2(5H)-yl)bicyclo[1.1.1]pentane-1-carbonitrile], for which the pEC50 is 7.16.

As to `O=c1n(C23CC(c4ccccc4)(C2)C3)nc2n1[C@H](c1cc(F)cc(F)c1)CC2` [Compound 1-12, (5S)-5-(3,5-difluorophenyl)-2-(3-phenylbicyclo[1.1.1]pentan-1-yl)-2,5,6,7-tetrahydro-3H-pyrrolo[2,1-c][1,2,4]triazol-3-one], the pEC50 is 7.31.

In the case of `N#CC12CC(n3nc4n(c3=O)[C@H](c3cncc(F)c3)CC4)(C1)C2` [Compound 1-11, 3-[(5S)-5-(5-fluoropyridin-3-yl)-3-oxo-6,7-dihydro-3H-pyrrolo[2,1-c][1,2,4]triazol-2(5H)-yl]bicyclo[1.1.1]pentane-1-carbonitrile], the pEC50 was 6.52.

Turning to `N#CC12CC(n3nc4n(c3=O)[C@H](c3ccccc3)CC4)(C1)C2(F)F` [Compound 3-3, 2,2-difluoro-3-[(5S)-3-oxo-5-phenyl-6,7-dihydro-3H-pyrrolo[2,1-c][1,2,4]triazol-2(5H)-yl]bicyclo[1.1.1]pentane-1-carbonitrile], the pEC50 is 7.35.

Consider `O=c1n(C23CC(F)(C2)C3)nc2n1[C@H](c1ccccc1)COC2` [Compound 1-78, (R)-2-(3-fluorobicyclo[1.1.1]pentan-1-yl)-5-phenyl-2,5,6,8-tetrahydro-3H-[1,2,4]triazolo[3,4-c][1,4]oxazin-3-one], for which the pEC50 was 7.03.

As to `N#CC12CC(n3nc4n(c3=O)[C@H](c3cc(F)cc(F)c3)COC4)(C1)C2` [Compound 1-79, (R)-3-(5-(3,5-difluorophenyl)-3-oxo-5,6-dihydro-3H-[1,2,4]triazolo[3,4-c][1,4]oxazin-2(8H)-yl)bicyclo[1.1.1]pentane-1-carbonitrile], the pEC50 was 6.97.

Regarding `O=c1n(C23CC(C(F)F)(C2)C3)nc2n1[C@H](c1cc(F)cc(F)c1)CC2` [Compound 1-28, (5S)-2-[3-(difluoromethyl)bicyclo[1.1.1]pentan-1-yl]-5-(3,5-difluorophenyl)-2,5,6,7-tetrahydro-3H-pyrrolo[2,1-c][1,2,4]triazol-3-one], the pEC50 was 7.59.

With `O=c1n(C23CCC(C2)C3)nc2n1[C@H](c1cc(F)cc(F)c1)CC2` [Compound 1-4, (5S)-2-(bicyclo[2.1.1]hexan-1-yl)-5-(3,5-difluorophenyl)-2,5,6,7-tetrahydro-3H-pyrrolo[2,1-c][1,2,4]triazol-3-one], the pEC50 was 7.51.
